# “And” between values parts separate entries of the source, which are not always exact repeats. Equal values may be shown once. Read-outs that look alike come from different tables or passages of the source.
# Columns and labels:
# [1] = test system: Trichophyton mentagrophytes; assay: Antidermatophyte plaque growth inhibition; assay type: cell-based; settings: for inhibition at 100 µg/mL: read-out: Percent growth inhibition
# [2] = test system: M. gypseum, M. canis, T. mentagrophytes, T. tonsurans and E. floccosum; assay: Antidermatophyte activity, all five dermatophytes taken together; assay type: cell-based; settings: for inhibition at 100 µg/mL: read-out: Percentage of growth inhibition over the five dermatophytes
# [3] = test system: herpes simplex virus-1 TK-KOS ACVr; assay: microbe, parasite or virus in culture; assay type: cell-based; settings: Human alphaherpesvirus 1, HEL, read-out: Antiviral EC50
# [4] = test system: herpes simplex virus-1 (KOS); assay: Antiviral activity in HEL cell cultures (CPE, MTS); assay type: cell-based; settings: Human alphaherpesvirus 1, HEL cells
# [5] = test system: Microsporum canis; assay: Antidermatophyte plaque growth inhibition; assay type: cell-based; settings: for inhibition at 100 µg/mL: read-out: Percent growth inhibition
# [6] = test system: Microsporum gypseum; assay: Antidermatophyte plaque growth inhibition; assay type: cell-based; settings: Nannizzia gypsea; for inhibition at 100 µg/mL: read-out: Percent growth inhibition
# [7] = test system: Epidermophyton floccosum; assay: Antidermatophyte plaque growth inhibition; assay type: cell-based; settings: for inhibition at 100 µg/mL: read-out: Percent growth inhibition
# [8] = test system: human pancreatic carcinoma cells (Mia Paca-2); assay: Cell proliferation inhibition
# [9] = test system: Adeno virus-2; assay: Antiviral activity in HEL cell cultures (CPE, MTS); assay type: cell-based; settings: Adeno virus-2, HEL cells
# [10] = test system: Candida albicans (ATCC 10231); assay: Anti-Candida albicans broth microdilution MIC; settings: Candida albicans, ATCC10231, 24 h
# [11] = test system: human cervical carcinoma cells (HeLa); assay: Cell proliferation inhibition
# [12] = test system: Trichophyton tonsurans; assay: Antidermatophyte plaque growth inhibition; assay type: cell-based; settings: for inhibition at 100 µg/mL: read-out: Percent growth inhibition
# [13] = test system: HEK293T (Normal Kidney Epithelial Cells); assay: Cell proliferation inhibition, non-cancer control cells; settings: Homo sapiens, HEK-293T
# [14] = test system: vaccinia virus; assay: microbe, parasite or virus in culture; assay type: cell-based; settings: Orthopoxvirus vaccinia, HEL, read-out: Antiviral EC50
# [15] = test system: human melanoma cells (SK-Mel 5); assay: Cell proliferation inhibition
# [16] = Ferric reducing antioxidant power (FRAP) test; settings: mean ± SEM
# [17] = DPPH radical scavenging test; settings: tested at 1 mg/mL; mean ± SEM
# [18] = test system: Human Coronavirus (229E); assay: microbe, parasite or virus in culture; assay type: cell-based; settings: HEL, read-out: Antiviral EC50
# [19] = test system: Respiratory syncytial virus; assay: microbe, parasite or virus in culture; assay type: cell-based; settings: human respiratory syncytial virus, HeLa cells, read-out: Antiviral EC50
# [20] = test system: vesicular stomatitis virus; assay: microbe, parasite or virus in culture; assay type: cell-based; settings: HeLa, read-out: Antiviral EC50
# [21] = test system: Coxsackie virus B4; assay: Antiviral activity in HeLa cell cultures (CPE, MTS); assay type: cell-based; settings: Enterovirus B; Coxsackie virus B4, HeLa cells
# [22] = test system: human embryonic lung (HEL) cell cultures
# [23] = test system: herpes simplex virus-2 (G); assay: Antiviral activity in HEL cell cultures (CPE, MTS); assay type: cell-based; settings: Human alphaherpesvirus 2; Herpes simplex virus-2, HEL cells
# [24] = test system: HeLa cell cultures; settings: human
# [25] = test system: human T-lymphocyte cells (CEM); assay: Cell proliferation inhibition
# [26] = UV filtering parameters of compounds in solution (MeOH, 290-400 nm)
# [27] = UV filtering parameters of cosmetic formulation on PMMA plates (modified Diffey-Robson); assay type: physicochemical
# [28] = Photostability of formulations, solar simulator; settings: formulation on PMMA plates
# [29] = after solar simulator irradiation
smiles,measurement,setting,value
"O=S(=O)(O)c1ccc2[nH]c(-c3cccs3)nc2c1 [Compound 9, 2-(thiophen-2-yl)-1H-benzimidazole-5-sulfonic Acid]",inhibition at 100 µg/mL,"[1]; T. mentagrophytes, 100 µg/mL, '+' has no key",57.3 ± 1.09%
same,inhibition at 100 µg/mL,"[2]; 100 µg/mL, all five dermatophytes",50 to 79%
same,EC50,[3],> 100 µM
same,EC50,[4],> 100 µM
same,inhibition at 100 µg/mL,"[5]; M. canis, 100 µg/mL, '+' has no key",65.9 ± 3.21%
same,inhibition at 100 µg/mL,"[6]; M. gypseum, 100 µg/mL, '+' has no key",59.8 ± 6.12%
same,inhibition at 100 µg/mL,"[7]; E. floccosum, 100 µg/mL, '+' has no key",50 ± 3.26%
same,IC50,[8],43 ± 14 µM
same,EC50,[9],> 100 µM
same,MIC,[10],64 µg/mL
same,IC50,[11],> 100 µM
same,inhibition at 100 µg/mL,"[12]; T. tonsurans, 100 µg/mL, '+' has no key",50.8 ± 2.11%
same,IC50,[13],> 100 µM
same,EC50,[14],> 100 µM
same,IC50,[15],> 100 µM
same,FRAP,[16],82.16 ± 0.22 µmolTE/g
same,DPPH (% Inhibition),[17],12.52 ± 0.88%
same,EC50,[18],> 100 µM
same,EC50,[19],> 100 µM
same,EC50,[20],> 100 µM
same,EC50,[21],> 100 µM
same,Cytotoxic concentration,[22],> 100 µM
same,EC50,[23],> 100 µM
same,Cytotoxic concentration,[24],> 100 µM
same,melting point,,> 250 °C
same,IC50,[25],34 ± 2 µM
same,SPF,[26],4.72±0.17
same,UVA/UVB,[26],0.48
same,UVAPF,[26],1.43±0.09
same,λc (critical wavelength),[26],339 nm
"c1coc(-c2nc3ccccc3[nH]2)c1 [Compound 11, 2-(furan-2-yl)-1H-benzimidazole]",IC50,[1],1.61 ± 0.1 µg/mL
same,inhibition at 100 µg/mL,[1],97.2 ± 4.53%
same,Activity on dermatophytes (in words),[2]; 100 µg/mL,fungicide activity
same,IC50,[2]; read-out: IC50 range over the five dermatophytes,0.97 to 3.8 µg/mL
same,inhibition at 100 µg/mL,[2],~100%
same,EC50,[3],> 100 µM
same,EC50,[4],> 100 µM
same,SPF,[27]; 1% in formulation,6.84
same,UVA/UVB,[27]; 1% in formulation,0.69
same,UVAPF,[27]; 1% in formulation,1.94
same,λc,[27]; 1% in formulation,368 nm
same,SPF,[27]; 2% in formulation,10.39
same,UVA/UVB,[27]; 2% in formulation,0.13
same,UVAPF,[27]; 2% in formulation,1.53
same,λc,[27]; 2% in formulation,366 nm
same,SPF,[27]; 3% in formulation,11.15
same,UVA/UVB,[27]; 3% in formulation,0.18
same,UVAPF,[27]; 3% in formulation,1.82
same,λc,[27]; 3% in formulation,371 nm
same,IC50,[5],1.58 ± 0.06 µg/mL
same,inhibition at 100 µg/mL,[5],98.3 ± 2.03%
same,IC50,[6],1.54 ± 0.02 µg/mL
same,inhibition at 100 µg/mL,[6],99 ± 0.28%
same,IC50,[7],2.44 ± 0.05 µg/mL
same,inhibition at 100 µg/mL,[7],97.9 ± 4.23%
same,IC50,[8],> 100 µM
same,EC50,[9],> 100 µM
same,IC50,[11],> 100 µM
same,IC50,[12],1.89 ± 0.22 µg/mL
same,inhibition at 100 µg/mL,[12],94.7 ± 5.63%
same,IC50,[13],> 100 µM
same,EC50,[14],> 100 µM
same,IC50,[15],> 100 µM
same,FRAP,[16],4462.64 µmolTE/g and 4462.64 ± 18.29 µmolTE/g
same,DPPH (% Inhibition),[17],15.46 ± 0.98%
same,EC50,[18],> 100 µM
same,EC50,[19],> 100 µM
same,% SPFeff (residual in vitro SPF after irradiation),[28]; [29],less than 80%
same,% UVA-PFeff (residual UVA-PF after irradiation),[28]; [29],less than 80%
same,Photostability (in words),"[28]; irradiated with solar simulator, photostable if % SPF and % PF-UVA at least 80%",photoinstable
same,EC50,[20],> 100 µM
same,EC50,[21],> 100 µM
same,Cytotoxic concentration,[22],> 100 µM
same,EC50,[23],> 100 µM
same,Cytotoxic concentration,[24],> 100 µM
same,IC50,[25],> 100 µM
same,SPF,[26],20.06±3.04
same,UVA/UVB,[26],0.3
same,UVAPF,[26],1.05±0.06
same,λc (critical wavelength),[26],333 nm

# Source: PMC7570844, “Skin Damages—Structure Activity Relationship of Benzimidazole Derivatives Bearing a 5-Membered Ring System” (Molecules, 2020)
